# From US20250188079A1, “INHIBITING CYCLIC AMP-RESPONSIVE ELEMENT-BINDING PROTEIN (CREB)” (Forma Therapeutics, Inc., priority 2019, published 2025)
# Molecular target: CBP (Homo sapiens (Human), UniProt Q92793)
# Test: HTRF biochemical assay for CBP activity (TR-FRET, bromodomain)
# Type: binding
# Details: geometric mean, 10-point 3-fold dilution 33 μM to 1.7 nM, read-out: BROMO IC50 TRF TB CBP (μM gmean)
# Summary of the method: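 IC50 derives from a 4-parameter logistic fit of % inhibition, calculated from the 520/490 nm TR-FRET ratio against DMSO and no-enzyme controls. Final compound levels spanned 33 μM to 1.7 nM (10 points, 3-fold), with CBP and peptide ligand in Hepes pH 7.5/GSH/BGG/BSA/Triton buffer, incubated at room temperature for varying times.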
# Sequence of CBP (Q92793 1085-1192): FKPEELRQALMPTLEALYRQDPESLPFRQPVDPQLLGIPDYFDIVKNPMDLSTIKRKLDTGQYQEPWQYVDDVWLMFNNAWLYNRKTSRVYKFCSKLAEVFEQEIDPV
row,Compound,IC50
1,COC(=O)N1CCc2ccc3c(nc([C@@H]4CC[C@H](C(=O)O)C4)n3[C@H](C)Cc3ccccc3C)c2C1 [Compound 329],0.1 to 1 µM
2,COC(=O)N1CCc2ccc3c(nc([C@H]4CC[C@H](C(=O)O)CC4)n3[C@@H](C)Cc3c(C)cccc3C)c2C1 [Compound 6],0.001 to 0.01 µM
3,COC(=O)N1CCc2ccc3c(nc([C@H]4CC[C@H](C(=O)O)CC4)n3[C@@H](C)Cc3ccc4c(c3)CCO4)c2C1 [Compound 65],0.001 to 0.01 µM
4,COC(=O)N1CCc2c(C(=O)O)cc3c(nc(C4CCCCC4)n3CCc3ccccc3)c2C1 [Compound 149],0.001 to 0.01 µM
5,COC(=O)N1CCc2ccc3c(nc(N4CCN(C(=O)C5COC5)CC4)n3[C@H](C)Cc3ccccc3)c2C1 [Compound 79],0.001 to 0.01 µM
6,COC(=O)N1CCc2ccc3c(nc([C@H]4CC[C@@H](C(=O)O)CC4)n3[C@@H](C)Cn3cc(Cl)cn3)c2C1 [Compound 264],0.01 to 0.1 µM
7,COC[C@@H](Cc1ccccc1)n1c2ccc3c(c2nc1[C@H]1CC[C@H](C(=O)O)CC1)CN(C(=O)OC)CC3 [Compound 124],0.001 to 0.01 µM
8,COC(=O)N1CCc2ccc3c(nc(-c4ccc(C(=O)O)c(F)c4)n3[C@@H](C)Cc3ccccc3)c2C1 [Compound 133],0.001 to 0.01 µM
9,COC(=O)N1CCc2cc(C#N)c3c(nc([C@H]4CC[C@H](C(=O)O)CC4)n3CCc3ccccc3)c2C1 [Compound 153],0.001 to 0.01 µM
10,COC(=O)N1CCc2ccc3c(nc(N4CCC[C@@H](C(=O)O)C4)n3C[C@H](C)c3ccccc3)c2C1 [Compound 144],0.001 to 0.01 µM
11,COC(=O)N1CCc2ccc3c(nc(C4CCN(S(C)(=O)=O)CC4)n3[C@H](C)Cc3ccccc3)c2C1 [Compound 319],0.1 to 1 µM
12,COC(=O)N1CCc2ccc3c(nc([C@H]4CC[C@H](C(=O)O)CC4)n3[C@@H](C)Cc3cccc(F)c3F)c2C1 [Compound 71],0.001 to 0.01 µM
13,COC(=O)N1CCc2ccc3c(nc([C@H]4CC[C@@H](C(=O)O)C4)n3[C@H](C)Cc3ccccc3C)c2C1 [Compound 59],0.001 to 0.01 µM
14,"COC(=O)N1CCc2ccc3c(nc(C4CCCCC4)n3C[C@H](C(=O)O)c3cccc(F)c3F)c2C1 (single isomer, unassigned) [Compound 26]",0.001 to 0.01 µM
15,"COC(=O)N1CCc2ccc3c(nc(N4CCC(C(=O)O)CC4)n3[C@@H](C)Cc3ccccc3Cl)c2C1 (single isomer, unassigned) [Compound 14]",0.001 to 0.01 µM
16,COC(=O)N1CCc2ccc3c(nc(-c4cccc(C(C)(C)C(=O)O)c4)n3[C@@H](C)Cn3cc(Cl)cn3)c2C1 [Compound 185],0.01 to 0.1 µM
17,COC(=O)N1CCc2ccc3c(nc(C4CCCCC4)n3C[C@H](CC(=O)O)c3ccccc3C)c2C1 [Compound 115],0.001 to 0.01 µM
18,COC(=O)N1CCc2ccc3c(nc(-c4ccc(C(C)(C)C(=O)O)cc4)n3[C@H](C)Cn3cc(Cl)cn3)c2C1 [Compound 327],0.1 to 1 µM
19,COC(=O)N1CCc2ccc3c(nc([C@H]4CC[C@H](C(=O)O)CC4)n3[C@@H](C)Cc3ccccc3Cl)c2C1 [Compound 42],0.001 to 0.01 µM

row,Compound,IC50
1,COC(=O)N1CCc2ccc3c(nc([C@H]4CC[C@H](C(=O)O)CC4)n3[C@H](C)Cn3ncc4ccccc43)c2C1 [Compound 311],0.1 to 1 µM
2,"COC(=O)N1CCc2ccc3c(nc([C@@H]4CCC[C@@H](C(=O)O)C4)n3[C@@H](C)Cc3ccccc3Cl)c2C1 (single isomer, unassigned) [Compound 20]",0.001 to 0.01 µM
3,COC(=O)N1CCc2c(Cl)cc3c(nc(C4CCCCC4)n3C[C@@H](C(=O)O)c3ccccc3)c2C1 [Compound 56],0.001 to 0.01 µM
4,COC(=O)N1CCc2ccc3c(nc(C4CCCCC4)n3CCc3ccc(F)c(C(=O)O)c3)c2C1 [Compound 160],0.001 to 0.01 µM
5,COC(=O)N1CCc2ccc3c(nc([C@H]4CCC[C@H](C(=O)O)C4)n3[C@@H](C)Cc3ccccc3)c2C1 [Compound 261],0.01 to 0.1 µM
6,COC(=O)N1CCc2ccc3c(nc([C@H]4CC[C@@](C)(C(=O)O)CC4)n3[C@@H](C)Cn3cc(Cl)cn3)c2C1 [Compound 41],0.001 to 0.01 µM
7,COC(=O)N1CCc2ccc3c(nc(C4CCN(S(C)(=O)=O)CC4)n3[C@@H](C)Cc3ccccc3)c2C1 [Compound 139],0.001 to 0.01 µM
8,COC(=O)N1CCc2ccc3c(nc([C@@H]4CCC[C@@H](C(=O)O)C4)n3[C@H](C)Cc3ccc(F)c(F)c3)c2C1 [Compound 217],0.01 to 0.1 µM
9,"COC(=O)N1CCc2ccc3c(nc(C4CCCCC4)n3C[C@H](C(=O)NS(C)(=O)=O)c3ccccc3)c2C1 (single isomer, unassigned) [Compound 22]",0.001 to 0.01 µM
10,COC(=O)N1CCc2ccc3c(nc([C@H]4CC[C@](C)(C(=O)O)CC4)n3[C@@H](C)Cn3cc(Cl)cn3)c2C1 [Compound 231],0.01 to 0.1 µM
11,COC(=O)N1CCc2ccc3c(nc([C@@H]4CCC[C@@H](C(=O)O)C4)n3C[C@H]3CC[C@H](OC)CC3)c2C1 [Compound 262],0.01 to 0.1 µM
12,"COC(=O)N1CCc2ccc3c(nc([C@H]4CC[C@H](C(=O)O)CC4)n3[C@@H](C)Cc3cc(F)cc(F)c3)c2C1 (single isomer, unassigned) [Compound 3]",0.001 to 0.01 µM
13,COC(=O)N1CCc2ccc3c(nc(-c4cccnc4)n3[C@@H](C)Cc3ccccc3)c2C1 [Compound 127],0.001 to 0.01 µM
14,COC(=O)N1CCc2ccc3c(nc([C@H]4CC[C@@H](C(=O)O)CC4)n3CCc3ccccc3)c2C1 [Compound 336],0.1 to 1 µM
15,COC(=O)N1CCc2ccc3c(nc([C@H]4CC[C@H](C(=O)O)CC4)n3[C@@H](C)Cc3ccccc3)c2C1 [Compound 192],0.01 to 0.1 µM
16,COC(=O)N1CCc2ccc3c(nc([C@H]4CC[C@H](OC)CC4)n3C[C@@H](C(=O)O)c3ccccc3)c2C1 [Compound 123],0.001 to 0.01 µM
17,COC(=O)N1CCc2ccc3c(nc(C4CCCCC4)n3[C@H](C)C[C@H]3CC[C@@H](C(=O)O)CC3)c2C1 [Compound 142],0.001 to 0.01 µM
18,COC(=O)N1CCc2ccc3c(nc([C@H]4CC[C@H](C(=O)O)CC4)n3[C@@H](C)C[C@@H]3CCCCO3)c2C1 [Compound 260],0.01 to 0.1 µM

# The next lines start with the values.
row,IC50,Compound
1,0.001 to 0.01 µM,COC(=O)N1CCc2ccc3c(nc(C4CCCCC4)n3[C@@H](C)Cc3cccc(C(=O)O)c3)c2C1 [Compound 102]
2,0.01 to 0.1 µM,COC(=O)N1CCc2ccc3c(nc([C@H]4CC[C@H](C(=O)O)CC4)n3[C@H](C)C[C@H]3CCCOC3)c2C1 [Compound 275]
3,0.1 to 1 µM,COC(=O)N1CCc2ccc3c(nc([C@H]4CC[C@H](C(=O)O)CC4)n3[C@H](C)C[C@H]3CC[C@H](OC(F)(F)F)CC3)c2C1 [Compound 317]
4,0.01 to 0.1 µM,COC(=O)N1CCc2ccc3c(nc([C@H]4CCC[C@H](C(=O)O)C4)n3Cc3cncc(Cl)n3)c2C1 [Compound 254]
5,0.01 to 0.1 µM,COC(=O)N1CCc2ccc3c(nc(C4CCCC4)n3C[C@@H](C(=O)O)c3ccccc3)c2C1 [Compound 205]
6,0.01 to 0.1 µM,COC(=O)N1CCc2ccc3c(nc(C4CCCCC4)n3CC[C@@H]3CCCC[C@H]3C(=O)O)c2C1 [Compound 235]
7,0.001 to 0.01 µM,COC(=O)N1CCc2ccc3c(nc(C4CCCCC4)n3[C@@H](C)C[C@@H]3CCCC[C@@H]3C(=O)O)c2C1 [Compound 120]
8,0.001 to 0.01 µM,"COC(=O)N1CCc2ccc3c(nc(C4CCCC(C(=O)O)C4)n3C[C@H](C)c3ccc(F)c(F)c3)c2C1 (stereo in doubt) [Compound 30, (1S,3S)-3[3-[(2R)-2-(3,4-difluorophenyl)propyl]-8-(methoxycarbonyl)-3H,6H,7H,8H,9H-imidazo[4,5-h]isoquinolin-2-yl]cyclohexane-1-carboxylic acid]"
9,0.01 to 0.1 µM,COC(=O)N1CCc2ccc3c(nc(C4CCCCC4)n3C[C@@H]3CCCC[C@@H]3C(=O)O)c2C1 [Compound 195]
10,0.01 to 0.1 µM,COC(=O)N1CCc2ccc3c(nc([C@H]4CC[C@@H](OC)CC4)n3C[C@H](C(=O)O)c3ccccc3)c2C1 [Compound 250]
11,0.1 to 1 µM,COC(=O)N1CCc2ccc3c(nc([C@H]4CC[C@H](C(=O)O)CC4)n3[C@H](C)Cc3ccccc3Cl)c2C1 [Compound 295]
12,0.001 to 0.01 µM,"COC(=O)N1CCc2ccc3c(nc([C@H]4CCC[C@@H](C(=O)O)C4)n3[C@H](C)Cc3ccccc3)c2C1 (single isomer, unassigned) [Compound 12]"
13,0.01 to 0.1 µM,COC(=O)N1CCc2ccc3c(nc([C@H]4CC[C@H](C(=O)O)CC4)n3[C@@H](C)C[C@H]3CC[C@@H](OC)CC3)c2C1 [Compound 220]
14,0.01 to 0.1 µM,COC(=O)N1CCc2c(Cl)cc3c(nc(C4CCCCC4)n3C[C@H](C(=O)O)c3ccccc3)c2C1 [Compound 223]
15,0.001 to 0.01 µM,COC(=O)N1CCc2ccc3c(nc(-c4cccc(CC(=O)O)c4)n3[C@@H](C)Cc3ccccc3)c2C1 [Compound 101]
16,0.001 to 0.01 µM,COC(=O)N1CCc2ccc3c(nc(C4CCCCC4)n3CC(C(=O)O)C3CCCCC3)c2C1 (centres unmarked) [Compound 126]
17,0.001 to 0.01 µM,COC(=O)N1CCc2ccc3c(nc(N4CCC(C)(C(=O)O)CC4)n3[C@@H](C)Cc3ccccc3)c2C1 [Compound 75]
18,0.01 to 0.1 µM,COC(=O)N1CCc2ccc3c(nc([C@@H]4CCC[C@@H](C(=O)O)C4)n3Cc3cccc(OC)n3)c2C1 [Compound 272]
19,0.001 to 0.01 µM,COC(=O)N1CCc2ccc3c(nc([C@H]4CC[C@H](C(=O)O)CC4)n3[C@H](C)C(F)(F)c3ccccc3)c2C1 [Compound 125]
20,0.001 to 0.01 µM,COC(=O)N1CCc2ccc3c(nc(C4CCN(C(=O)O)CC4)n3[C@H](C)Cc3ccccc3)c2C1 [Compound 134]
21,0.001 to 0.01 µM,COC(=O)N1CCc2ccc3c(nc([C@H]4CC[C@H](C(=O)O)CC4)n3[C@@H](C)C[C@]3(C)CC[C@H](OC)CC3)c2C1 [Compound 57]
22,0.01 to 0.1 µM,COC(=O)N1CCc2ccc3c(nc(C4CCCCC4)n3C[C@H]3CCCC[C@@H]3C(=O)O)c2C1 [Compound 196]
23,0.01 to 0.1 µM,COC(=O)N1CCc2ccc3c(nc(N4CCN(C(C)=O)CC4)n3[C@@H](C)Cc3cccnc3)c2C1 [Compound 234]
24,0.01 to 0.1 µM,COC(=O)N1CCc2ccc3c(nc([C@H]4CC[C@H](C(=O)O)CC4)n3CCn3cc(Cl)cn3)c2C1 [Compound 236]
25,0.1 to 1 µM,COC(=O)N1CCc2ccc3c(nc(C4CS(=O)(=O)C4)n3CCc3ccccc3)c2C1 [Compound 342]
